Consider one molecule from patent publication US20250382556A1, “MODULATION OF THE BRANCHED-CHAIN METABOLITE CONTENT OF FRUITS AND VEGETABLES” (BOARD OF TRUSTEES OF MICHIGAN STATE UNIVERSITY, priority 2024, published 2025).

This test has as its system flowering quince peel. The test can be described thus: Free amino acid content of flowering quince peel via UPLC-MS/MS after AHAS inhibitor treatment. The format is in vivo, Chaenomeles x superba. Details: key to free asparagine content compared to control / free aspartate content compared to control / free cysteine content compared to control / free glutamate content compared to control / free glutamine content compared to control / free glycine content compared to control / free lysine content compared to control / free phenylalanine content compared to control / free threonine content compared to control / free tryptophan content compared to control / free tyrosine content compared to control / free alanine content compared to control / free arginine content compared to control: —: Dash indicates no significant difference between treatments. How it is done:
Whole apple fruit, freshly harvested and at an early stage of ripening (‘ripening’), were held at room temperature (22° C.) and rubbed daily with 3 mL of a freshly made 1mM solution of the inhibitor rimsulfuron (N-((4,6-dimethoxypyrimidin-2-yl)aminocarbonyl)-3-(ethylsulfonyl)-2-pyridinesulfonamide, made from DuPont MATRIX® SG, 25% w/w active ingredient; 0.1% Tween 20) or water solution containing 0.1% Tween 20 before preparation with further treatments. Flowering quince fruit were smaller than the apple fruit and had 2 mL of the control and treatment solutions applied daily at 22° C. ‘Gala’, ‘Empire’, and ‘Jonagold’ apple fruit were treated for four, nine, and seven days before further preparation, respectively. Flowering quince fruit were treated for six days before analysis. Headspace volatile emissions were monitored for three or four representative fruits during the incubation/treatment period to determine appropriate times for further treatments. During method testing, 1 mM solutions of the imidazolinone imazamox was also assessed with apple fruit (2-[4,5-dihydro-4-methyl-4-(1-methylethyl)-5-oxo-1H-imidazol-2-yl]-5-(methoxymethyl)-3-pyridinecarboxylic acid, made from RAPTOR®, 12.1% w/w active ingredient; 0.1% Tween 20).
After volatile analysis, apple peel disks, collected peel of flowering quince, and ‘Valery’ pulp section samples were held at −80° C. for further amino acid analysis.
Frozen samples were ground to a powder in liquid nitrogen-chilled mortar and pestles. About 500 mg of tissue was vortexed for 10 sec in 2 mL of room temperature (22° C.) extraction solution (1:1:1 water:acetonitrile:ethanol, v/v/v) spiked with 2 nmoles of U-^13C,^15N labeled amino acids (MilliporeSigma) as internal standards and heated for 15 min in a 65° C. water bath. Extracts were briefly chilled on ice before centrifugation at 4400×g for 15 min at 4° C. The supernatant was filtered by centrifugation (0.2 μm nylon centrifugal filter; Costar, Corning) at 21000×g for 5 min at room temperature. 10 μL of the filtrate was transferred to an autosampler vial and diluted 100-fold with 990 μL of 10.1 mM perfluorohexanoic acid (PFHA) spiked with […] of internal standard. Thus the final concentration of internal standard was ˜2 μM.
An amino acid standard series was prepared from a premade mixture (MilliporeSigma, AAS18) that contained equal molar amounts of cystine and all 20 proteinogenic amino acids save for tryptophan, asparagine, glutamine, and cysteine. An equal molar mixture of tryptophan, asparagine, glutamine, and cysteine was subsequently prepared. To avoid dilution errors or artefacts from differing buffers, these amino acid stocks were aliquoted and desiccated such that a five-part standard series ranging from 250 μM to 25 nM would be produced upon resuscitation with 10 μL of spiked extraction buffer and 990 μL spiked PFHA solution.
Samples and amino acids were held overnight at −20° C. before analysis. Amino acids were analyzed with a Xevo TQ-S Micro UPLC (H-Class)-MS/MS (Waters) at the Michigan State University Mass Spectrometry and Metabolomics Core. Conditions were as follows. HPLC column: Acquirt UPLC HSS T3, 2.1×100 mm, 1.7 μm particle size (Waters), with a 0.2 μm pre-column filter (Waters). Mobile phase: A) 10 mM PFHA in water, B) acetonitrile. LC gradient: linear gradient, slope setting=6, flow rate=0.3 mL·min^−1, step 1) 0 min, 100% A, 0% B, 2) 1 min, 100% A, 0% B, 3) 8 min, 35% A, 65% B, 4) 8.01 min, 10% A, 90% B, 5) 9 min, 10% A, 90% B, 6) 9.01 min, 100% A, 0% B, 7) 13 min, 100% A, 0% B. Column temp: 40° C. Autosampler temp: 10° C. Injection volume: 10 μL. Tune parameters: electrospray ionization, standard ESI probe, capillary voltage=+1.0 kV, source temp=120° C., desolvation temp=350° C., desolvation gas=800 L·hr^−1, cone gas=40 L·hr^−1. MS collection was split into three phases and were adjusted after checking the retention time of several samples; however proline was missed for apple and flowering quince samples. […]

The mark [1] stands for this setting: Dr. Banks Pink flowering quince peel, 1 mM daily, six days.

Consider `CCS(=O)(=O)c1cccnc1S(=O)(=O)NC(=O)Nc1nc(OC)cc(OC)n1` [rimsulfuron, N-((4,6-dimethoxypyrimidin-2-yl)aminocarbonyl)-3-(ethylsulfonyl)-2-pyridinesulfonamide], for which, under setting [1], the “free alanine content compared to control” value is given as “—”, the “free arginine content compared to control” value is “—”, the “free asparagine content compared to control” value is reported as “—” and the “free aspartate content compared to control” value is listed as “—”. Under setting [1], the “free cysteine content compared to control” value is “—”, the “free glutamate content compared to control” value is “—”, the “free glutamine content compared to control” value is on record as “—” and the “free glycine content compared to control” value is “—”. Besides, under setting [1], the “free histidine content compared to control” value is given as 166.5 ± 20.1%, the “free isoleucine content compared to control” value was 51.3 ± 9.1%, the “free leucine content compared to control” value is listed as 81.9 ± 5.4% and the “free lysine content compared to control” value is “—”. Besides, under setting [1], the “free methionine content compared to control” value is given as 245.3 ± 38.5%, the “free phenylalanine content compared to control” value is reported as “—”, the “free serine content compared to control” value is on record as 302.1 ± 32.0% and the “free threonine content compared to control” value is “—”. Under setting [1], the “free tryptophan content compared to control” value is recorded as “—”, the “free tyrosine content compared to control” value is reported as “—” and the “free valine content compared to control” value was found to be 28.1 ± 3.8%. For the same molecule, for the setting “flowering quince peel tissue”, the leucine content reduced was 18.1%; the “total content of free amino acids” value is “not significantly altered”; the “valine and isoleucine collectively reduced” value was 64.2%.
